The subject of data set [1] is MM1.S. As to the kind of experiment: Cytotoxicity in human MM1S cells incubated for 48 hrs by MTT assay. The format is functional, cell-based. Background: Tetrazolium assays rely on reduction of a dye to a coloured formazan, in cell work by metabolically active cells.
Data set [2] concerns RPMI-8226. Briefly: Induction of apoptosis in human RPMI8226 cells at 0.12 to 2 uM by flow cytometry. Type of data set: functional, cell-based. Background: In flow cytometry, cells or beads pass a laser one at a time.
Data set [3] deals with T1, DEP domain-containing mTOR-interacting protein (Homo sapiens, UniProt Q8TB45). Briefly: Inhibition of DEPTOR in human RPMI8226 cells assessed as increase in mTOR kinase activity by measuring induction of p21 expression at 0.5 to 2 uM uM by Western blot analysis. Type of data set: cell-based. In general terms: Immunoblotting shows a protein as a band on a membrane.
The test system of data set [4] is MM1.S. Briefly: Cytotoxicity in human MM1S cells at 0.12 to 1 uM incubated for 48 hrs in presence of RAPTOR siRNA by MTT assay. The format is functional, cell-based.
Data set [5] can be described thus: Therapeutic index, ratio of IC50 for cytotoxicity against human PBL cells incubated for 48 hrs by MTT assay to IC50 for cytotoxicity against human MM1S cells incubated for 48 hrs by MTT assay. The format is toxicity, cell-based. The conditions noted are these: PBL cells versus MM1S cells, read-out: Ratio IC50.
Data set [6] deals with T1, DEP domain-containing mTOR-interacting protein. Briefly: Inhibition of DEPTOR in human RPMI8226 cells assessed as induction of mTORC1 activation at 0.5 uM incubated for 6 hrs co-immunoprecipitation assay. The format is cell-based.
The target of data set [7] is DEPTOR/mTOR (Homo sapiens) (UniProt P42345+Q8TB45). Briefly: Inhibition of DEPTOR-mTOR interaction (unknown origin) by yeast-2-hybrid screen based assay. Type of data set: protein assay.
Data set [8] is described as follows: Toxicity in normal hematopoietic colony forming cells (unknown origin) assessed as reduction in colony formation at 0.5 uM.
Data set [9] is described as follows: Toxicity in normal hematopoietic colony forming cells (unknown origin) assessed as reduction in colony formation at 10 uM.
Data set [10] concerns the target T1, DEP domain-containing mTOR-interacting protein. Briefly: Inhibition of DEPTOR in human RPMI8226 cells assessed as induction of mTORC1 activation at 1 uM incubated for 6 hrs co-immunoprecipitation assay. Type of data set: cell-based.
Data set [11] shares this target. Briefly: Inhibition of DEPTOR in human RPMI8226 cells assessed as increase in mTOR kinase activity by measuring induction of p70 phosphorylation incubated for 6 hrs by Western blot analysis. The format is cell-based.
For data set [12], the system named is OPM-2. As to the kind of experiment: Induction of apoptosis in human OPM2 cells at 0.12 to 2 uM incubated for 48 hrs incubated for 48 hrs by flow cytometry. Type of data set: functional, cell-based.
The test system of data set [13] is RPMI-8226. As to the kind of experiment: Antitumor activity against human RPMI8226 cells xenografted in mouse assessed as reduction in tumor volume at 20 mg/kg, ip dosed daily for 4 days. Type of data set: functional, organism-based.
Data set [14] relates to OPM-2. Briefly: Cytotoxicity in human OPM2 cells incubated for 48 hrs by MTT assay. Type of data set: functional, cell-based. Conditions: OPM-2, 48 h.
The subject of another data set is NCI-H929. As to the kind of experiment: Induction of apoptosis in human NCI-H929 cells at 0.12 to 2 uM incubated for 48 hrs by flow cytometry. Type of data set: functional, cell-based.
For data set [15], the system named is RPMI-8226. Briefly: Toxicity in human RPMI8226 cells at 0.5 uM incubated for 6 hrs. Type of data set: cell-based. Conditions: rpmi-8226, 6 h.
The subject of data set [16] is RPMI-8226. As to the kind of experiment: Induction of p70 degradation in human RPMI8226 cells at 1 to 2 uM incubated for 6 hrs by Western blot analysis. The format is cell-based. The conditions noted are these: rpmi-8226, 6 h.
Data set [17] relates to RPMI-8226. Briefly: Toxicity in human RPMI8226 cells at 0.05 to 0.2 uM incubated for 6 hrs. Type of data set: cell-based. Conditions: rpmi-8226, 6 h.
Data set [18] concerns RPMI-8226. Briefly: Toxicity in human RPMI8226 cells at 1 to 2 uM incubated for 6 hrs. The format is cell-based. The conditions noted are these: rpmi-8226, 6 h.
Data set [19] deals with T1, DEP domain-containing mTOR-interacting protein. As to the kind of experiment: Inhibition of DEPTOR in human RPMI8226 cells assessed as increase in mTOR kinase activity by measuring induction of p21 expression at 0.25 to 1 uM uM by Western blot analysis. The format is cell-based.
Data set [20] deals with RPMI-8226. Briefly: Toxicity in human RPMI8226 cells xenografted in mouse assessed as effect on platelet count at 20 mg/kg, ip dosed daily for 4 days. The format is organism-based. The conditions noted are these: in vivo, 96 h.
Data set [21] has as its system RPMI-8226. Briefly: Toxicity in human RPMI8226 cells xenografted in mouse assessed as effect on normal WBC counts at 20 mg/kg, ip dosed daily for 4 days. Type of data set: organism-based. Conditions: in vivo, 96 h.
The subject of data set [22] is RPMI-8226. Briefly: Induction of apoptosis in human RPMI8226 cells transfected with DEPTOR at 0.12 to 1 uM by flow cytometry. The format is functional, cell-based.
Data set [23] concerns RPMI-8226. As to the kind of experiment: Cytotoxicity in human RPMI8226 cells transfected with DEPTOR at 0.25 to 1 uM incubated for 48 hrs by MTT assay. Type of data set: functional, cell-based.
Data set [24] relates to MM1.S. Briefly: Cytotoxicity in human MM1S cells at 0.25 to 2 uM incubated for 48 hrs in presence of RAPTOR siRNA by MTT assay. The format is functional, cell-based.
Data set [25] concerns the target T1, DEP domain-containing mTOR-interacting protein. As to the kind of experiment: Induction of proteasome-dependent DEPTOR degradation in human RPMI8226 cells at 0.5 to 2 uM. The format is cell-based.
The test system of data set [26] is RPMI-8226. Briefly: Toxicity in human RPMI8226 cells xenografted in mouse assessed as effect on hematocrit at 20 mg/kg, ip dosed daily for 4 days. Type of data set: organism-based. Conditions: in vivo, 96 h.
The subject of data set [27] is RPMI-8226. Briefly: Toxicity in human RPMI8226 cells xenografted in mouse assessed as effect on hemoglobin concentration at 20 mg/kg, ip dosed daily for 4 days. Type of data set: organism-based. The conditions noted are these: in vivo, 96 h.

The source made the active and inactive calls. The rule behind the calls is not given here.

T1 sequence (Q8TB45 whole entry, the tested form may be a part): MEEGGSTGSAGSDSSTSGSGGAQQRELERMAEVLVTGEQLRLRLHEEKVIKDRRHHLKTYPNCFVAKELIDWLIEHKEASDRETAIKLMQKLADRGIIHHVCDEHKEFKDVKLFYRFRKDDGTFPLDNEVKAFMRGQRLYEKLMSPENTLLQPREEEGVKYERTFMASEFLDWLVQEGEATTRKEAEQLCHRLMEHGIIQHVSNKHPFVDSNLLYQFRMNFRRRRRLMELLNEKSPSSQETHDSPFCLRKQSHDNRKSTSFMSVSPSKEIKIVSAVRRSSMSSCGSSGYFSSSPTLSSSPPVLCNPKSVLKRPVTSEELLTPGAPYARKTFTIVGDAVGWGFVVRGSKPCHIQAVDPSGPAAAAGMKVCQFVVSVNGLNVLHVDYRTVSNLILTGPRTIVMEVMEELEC
DEPTOR/mTOR (Homo sapiens), sequence (Q8TB45 whole entry, looked up, other chains not shown): as the sequence (Q8TB45 whole entry, the tested form may be a part) above

As for `Fc1cccc(NN=C2c3ccccc3-c3ccccc32)c1`, the IC50 with MM1.S [1] is above 5000 nM.
With `CC(C)(C)OC(=O)NN=C1C(Cl)=C(Cl)C(Cl)=C1Cl`, the outcome in the data set on RPMI-8226 [2] was Active. Besides, the inhibition entry in [3] is “Active”. In addition, the outcome in the data set on MM1.S [4] was inactive. The selectivity ratio at 48 h in data set [5] came to 45.5. For the same compound, the “mTORC1 activation (active/not active)” value in data set [6] was “inactive”.
For the compound `Fc1ccc(NN=C2C(Cl)=C(Cl)C(Cl)=C2Cl)cc1`, the inhibition result in data set [3] was “Active”. Moreover, the outcome in the data set on MM1.S [4] was inactive. Also, the selectivity ratio at 48 h in data set [5] worked out at 33. Besides, the “mTORC1 activation (active/not active)” value in data set [6] is “inactive”.
Turning to `ClC1=C(Cl)C(Cl)=C(Cl)C1=NN(c1ccccc1)c1ccccc1`, the IC50 with MM1.S [1] was above 3000 nM.
Regarding `O=C(O)c1ccc2c(c1)CCC2`, the “inhibition activity call (active/inactive)” value in [7] is “Active”.
On to `CN(C)c1ccc(/C=C2\C=Cc3ccccc32)cc1F`, for which the Activity entry in data set [8] was “Toxic”. The “inhibition activity call (active/inactive)” value in data set [7] was “Active”.
In the case of `NN=C1C(Cl)=C(Cl)C(Cl)=C1Cl`, the result in the data set with RPMI-8226 [2], with OPM-2 [12], in the data set on RPMI-8226 [13] and with NCI-H929 was Active. In addition, the Activity result in data set [9] is on record as “Toxic”. In addition, in [10], the inhibition result was “Active”. Moreover, the results for the concentration for half-maximal inhibition (IC50) (in data set [11]; in the data set with OPM-2 [14]; in the data set on MM1.S [1]) were 1300 nM, 4000 nM and 3000 to 3300 nM, respectively. Besides, in data set [5], the selectivity ratio at 48 h is 14.3. For the same compound, in data set [6], the “mTORC1 activation (active/not active)” value was “inactive”. For the same compound, the “inhibition activity call (active/inactive)” value in data set [7] is “Active”.
`O=C(NN=C1C(Cl)=C(Cl)C(Cl)=C1Cl)c1ccccc1`: the Activity entry is on record as “Toxic” in the data set with RPMI-8226 [15], “Toxic” in the data set on RPMI-8226 [16], “Non-Toxic” in the data set with RPMI-8226 [17] and “Toxic” in the data set with RPMI-8226 [18].
For `CC(C)(C)NN=C1C(Cl)=C(Cl)C(Cl)=C1Cl`, the half-maximal inhibitory concentration (IC50) is above 5000 nM in data set [11] and above 3000 nM with MM1.S [1].
Turning to `CCCCCCCCNS(=O)(=O)c1ccccc1`, the “inhibition activity call (active/inactive)” value in [7] is “Active”.
Regarding `COc1cccc(NN=C2C(Cl)=C(Cl)C(Cl)=C2Cl)c1`, the concentration for half-maximal inhibition (IC50) in the data set with MM1.S [1] is above 3000 nM.
As for `CC(C)(C)C(=O)NN=C1C(Cl)=C(Cl)C(Cl)=C1Cl`, in the data set on RPMI-8226 [2], the outcome was Active. Moreover, the selectivity ratio at 48 h in data set [5] was 14. Moreover, the inhibition result in data set [19] is “Active”.
Consider `Fc1ccccc1NN=C1C(Cl)=C(Cl)C(Cl)=C1Cl`, for which the IC50 in the data set with MM1.S [1] is above 3000 nM.
Consider `CN(C)N=C1C(Cl)=C(Cl)C(Cl)=C1Cl`, for which the 50% inhibitory concentration (IC50) in the data set with MM1.S [1] was above 3000 nM.
On the same count and under the same terms, the figure for `CC(C)(C)OC(=O)NN=C1c2ccccc2-c2ccccc21` is above 5000 nM.
`O=C(c1ccc(F)cc1)N(N=C1C(Cl)=C(Cl)C(Cl)=C1Cl)C(=O)c1ccc(F)cc1`: the result in the data set on RPMI-8226 [2] was Active. Moreover, the inhibition result in data set [3] was “Active”. The selectivity ratio at 48 h in data set [5] was determined as 10.
`Cc1cccc(NN=C2C(Cl)=C(Cl)C(Cl)=C2Cl)c1` showed a half-inhibitory concentration (IC50) in the data set with MM1.S [1] above 3000 nM.
Turning to `FC(F)(F)c1cccc(NN=C2C(Cl)=C(Cl)C(Cl)=C2Cl)c1`, the outcome (in the data set on RPMI-8226 [2]; in the data set on OPM-2 [12]; with RPMI-8226 [13]; in data set [25]; in the data set with NCI-H929) was Active. Moreover, the Activity entry in the data set on RPMI-8226 [20] is reported as “Non-Toxic”; in the data set on RPMI-8226 [21], “Toxic”; in the data set with RPMI-8226 [26], “Non-Toxic”; in the data set on RPMI-8226 [27], “Non-Toxic”. Further, the result in the data set with RPMI-8226 [22], with RPMI-8226 [23] and with MM1.S [24] was inactive. Also, the selectivity ratio at 48 h in [5] was 136. Also, the “mTORC1 activation (active/not active)” value in data set [6] was “Active”. The same compound displayed an IC50 in the data set on OPM-2 [14] of 300 nM. For the same compound, the inhibition entry in data set [19] was “Active”.
Take `ClC1=C(Cl)C(Cl)=C(Cl)C1=NNC1CCCCC1`: the concentration for half-maximal inhibition (IC50) is above 5000 nM in data set [11] and above 3000 nM in the data set on MM1.S [1].
Turning to `NN=C(c1ccccc1)c1ccccc1`, in the data set on MM1.S [1], the IC50 is above 5000 nM.
The same measure, in the same setting: for `NN=c1c2ccccc2oc2ccccc12` the value was above 5000 nM.

Usually IC50 stands for the point on the concentration scale where inhibition reaches its midpoint.

(Values after ChEMBL document CHEMBL4417640, “Inhibitors of mtor-deptor interactions and methods of use thereof” (2018).)
